Laboratory results reported in ChEMBL document CHEMBL4177586, “Small molecule adjuvants that suppress both chromosomal and mcr-1 encoded colistin-resistance and amplify colistin efficacy in polymyxin-susceptible bacteria” (Bioorg Med Chem, 2017).

What was measured:
Escherichia coli [1] = test: Antimicrobial activity against Escherichia coli ATCC 25922 expressing mcr1 gene incubated for overnight duration by CLSI based method; assay type: functional, organism-based
Escherichia coli [2] = test: Antimicrobial activity against Escherichia coli ATCC 25922 incubated for overnight duration by CLSI based method; assay type: functional, organism-based
Klebsiella pneumoniae [3] = test: Antimicrobial activity against Klebsiella pneumoniae 2210291 expressing mcr1 gene incubated for overnight duration by CLSI based method; assay type: functional, organism-based
Acinetobacter baumannii [4] = test: Antimicrobial activity against Acinetobacter baumannii ATCC 17978 incubated for overnight duration by CLSI based method; assay type: functional, organism-based
Escherichia coli [5] = test: Antimicrobial activity against Escherichia coli YD626 expressing mcr1 gene incubated for overnight duration by CLSI based method; assay type: functional, organism-based
Escherichia coli [6] = test: Antimicrobial activity against Escherichia coli YD626 incubated for overnight duration by CLSI based method; assay type: functional, organism-based
Acinetobacter baumannii [7] = test: Antimicrobial activity against Acinetobacter baumannii SM1536 incubated for overnight duration by CLSI based method; assay type: functional, organism-based
Acinetobacter baumannii [8] = test: Antimicrobial activity against Acinetobacter baumannii ATCC 17978 expressing mcr1 gene incubated for overnight duration by CLSI based method; assay type: functional, organism-based
Klebsiella pneumoniae [9] = test: Antimicrobial activity against Klebsiella pneumoniae 2210291 incubated for overnight duration by CLSI based method; assay type: functional, organism-based
Acinetobacter baumannii [10] = test: Antimicrobial activity against Acinetobacter baumannii SM1536 expressing mcr1 gene incubated for overnight duration by CLSI based method; assay type: functional, organism-based
Acinetobacter baumannii [11] = test: Potentiation of colistin-induced antimicrobial activity against Acinetobacter baumannii ATCC 17978 expressing mcr1 gene assessed as reduction in colistin MIC at 60 uM incubated for overnight duration by CLSI based method relative to colistin alone control; assay type: functional

MIC (Escherichia coli [1]) [µg/mL] | MIC (Escherichia coli [2]) [µg/mL] | MIC (Klebsiella pneumoniae [3]) [µg/mL] | MIC (Acinetobacter baumannii [4]) [µg/mL] | MIC (Escherichia coli [5]) [µg/mL] | MIC (Escherichia coli [6]) [µg/mL] | MIC (Acinetobacter baumannii [7]) [µg/mL] | MIC (Acinetobacter baumannii [8]) [µg/mL] | MIC (Klebsiella pneumoniae [9]) [µg/mL] | MIC (Acinetobacter baumannii [10]) [µg/mL] | Compound | fold change (FC) (Acinetobacter baumannii [11])
8 | 1 | 16 | 2 | 4 | 1 | 2 | 16 | 1 | 64 | COLISTIN | 
 |  |  |  |  |  |  |  |  |  | O=C(NCCc1c[nH]c2ccccc12)c1cc(Cl)c(Cl)[nH]1 | 32
